The values that follow are results of earlier work, collected in US5869538A, “Method for enhancing transport of gases to tissues” (priority 1996, dated 1999).

For this data set the following is noted: for Diffusivities / Solubilities: Table 2, simulation parameter.

`O=O` [O2, oxygen]: the Diffusivities was 1.24 × 10^-3 cm^2 /min and the Solubilities is listed as 0.0227 mlml^-1 100 kPa^-1.

Regarding `N#N` [N2, nitrogen], the Diffusivities is given as 1.32 × 10^-3 cm^2 /min. Regarding `O=C=O` [CO2, carbon dioxide], the Diffusivities was 1.05 × 10^-3 cm^2 /min and the Solubilities is reported as 2.35 mlml^-1 100 kPa^-1.

For `[N-]=[N+]=O` [N2O, reference compound], the N2O solubility was 0.45 ml N2 O /ml blood/atm.
